From patent publication US7531320B2, “Modulation of β-catenin/TCF-activated transcription” (priority 2003, dated 2009)

Columns and labels:
[1] = target: T1, CBP (1-111) (Mus musculus, UniProt P45481); assay: Pull-down of CBP deletion constructs on COMPOUND 2 coated beads, competition with excess COMPOUND 1; type: binding; settings: CBP (1-111), (1-211), (1-351) in SW480 lysates, 150 μM COMPOUND 1
T1 construct: 6xHis (C); HSV tag (C); expressed in transfected cells

[2] = target: T2, β-catenin/CBP complex (Homo sapiens, UniProt Q92793); assay: Co-immunoprecipitation of β-catenin with CBP in SW480 cells; type: cell-based
T2 construct: endogenous in cells; host or cells: SW480
T2 sequence (Q92793 whole entry, one chain of several): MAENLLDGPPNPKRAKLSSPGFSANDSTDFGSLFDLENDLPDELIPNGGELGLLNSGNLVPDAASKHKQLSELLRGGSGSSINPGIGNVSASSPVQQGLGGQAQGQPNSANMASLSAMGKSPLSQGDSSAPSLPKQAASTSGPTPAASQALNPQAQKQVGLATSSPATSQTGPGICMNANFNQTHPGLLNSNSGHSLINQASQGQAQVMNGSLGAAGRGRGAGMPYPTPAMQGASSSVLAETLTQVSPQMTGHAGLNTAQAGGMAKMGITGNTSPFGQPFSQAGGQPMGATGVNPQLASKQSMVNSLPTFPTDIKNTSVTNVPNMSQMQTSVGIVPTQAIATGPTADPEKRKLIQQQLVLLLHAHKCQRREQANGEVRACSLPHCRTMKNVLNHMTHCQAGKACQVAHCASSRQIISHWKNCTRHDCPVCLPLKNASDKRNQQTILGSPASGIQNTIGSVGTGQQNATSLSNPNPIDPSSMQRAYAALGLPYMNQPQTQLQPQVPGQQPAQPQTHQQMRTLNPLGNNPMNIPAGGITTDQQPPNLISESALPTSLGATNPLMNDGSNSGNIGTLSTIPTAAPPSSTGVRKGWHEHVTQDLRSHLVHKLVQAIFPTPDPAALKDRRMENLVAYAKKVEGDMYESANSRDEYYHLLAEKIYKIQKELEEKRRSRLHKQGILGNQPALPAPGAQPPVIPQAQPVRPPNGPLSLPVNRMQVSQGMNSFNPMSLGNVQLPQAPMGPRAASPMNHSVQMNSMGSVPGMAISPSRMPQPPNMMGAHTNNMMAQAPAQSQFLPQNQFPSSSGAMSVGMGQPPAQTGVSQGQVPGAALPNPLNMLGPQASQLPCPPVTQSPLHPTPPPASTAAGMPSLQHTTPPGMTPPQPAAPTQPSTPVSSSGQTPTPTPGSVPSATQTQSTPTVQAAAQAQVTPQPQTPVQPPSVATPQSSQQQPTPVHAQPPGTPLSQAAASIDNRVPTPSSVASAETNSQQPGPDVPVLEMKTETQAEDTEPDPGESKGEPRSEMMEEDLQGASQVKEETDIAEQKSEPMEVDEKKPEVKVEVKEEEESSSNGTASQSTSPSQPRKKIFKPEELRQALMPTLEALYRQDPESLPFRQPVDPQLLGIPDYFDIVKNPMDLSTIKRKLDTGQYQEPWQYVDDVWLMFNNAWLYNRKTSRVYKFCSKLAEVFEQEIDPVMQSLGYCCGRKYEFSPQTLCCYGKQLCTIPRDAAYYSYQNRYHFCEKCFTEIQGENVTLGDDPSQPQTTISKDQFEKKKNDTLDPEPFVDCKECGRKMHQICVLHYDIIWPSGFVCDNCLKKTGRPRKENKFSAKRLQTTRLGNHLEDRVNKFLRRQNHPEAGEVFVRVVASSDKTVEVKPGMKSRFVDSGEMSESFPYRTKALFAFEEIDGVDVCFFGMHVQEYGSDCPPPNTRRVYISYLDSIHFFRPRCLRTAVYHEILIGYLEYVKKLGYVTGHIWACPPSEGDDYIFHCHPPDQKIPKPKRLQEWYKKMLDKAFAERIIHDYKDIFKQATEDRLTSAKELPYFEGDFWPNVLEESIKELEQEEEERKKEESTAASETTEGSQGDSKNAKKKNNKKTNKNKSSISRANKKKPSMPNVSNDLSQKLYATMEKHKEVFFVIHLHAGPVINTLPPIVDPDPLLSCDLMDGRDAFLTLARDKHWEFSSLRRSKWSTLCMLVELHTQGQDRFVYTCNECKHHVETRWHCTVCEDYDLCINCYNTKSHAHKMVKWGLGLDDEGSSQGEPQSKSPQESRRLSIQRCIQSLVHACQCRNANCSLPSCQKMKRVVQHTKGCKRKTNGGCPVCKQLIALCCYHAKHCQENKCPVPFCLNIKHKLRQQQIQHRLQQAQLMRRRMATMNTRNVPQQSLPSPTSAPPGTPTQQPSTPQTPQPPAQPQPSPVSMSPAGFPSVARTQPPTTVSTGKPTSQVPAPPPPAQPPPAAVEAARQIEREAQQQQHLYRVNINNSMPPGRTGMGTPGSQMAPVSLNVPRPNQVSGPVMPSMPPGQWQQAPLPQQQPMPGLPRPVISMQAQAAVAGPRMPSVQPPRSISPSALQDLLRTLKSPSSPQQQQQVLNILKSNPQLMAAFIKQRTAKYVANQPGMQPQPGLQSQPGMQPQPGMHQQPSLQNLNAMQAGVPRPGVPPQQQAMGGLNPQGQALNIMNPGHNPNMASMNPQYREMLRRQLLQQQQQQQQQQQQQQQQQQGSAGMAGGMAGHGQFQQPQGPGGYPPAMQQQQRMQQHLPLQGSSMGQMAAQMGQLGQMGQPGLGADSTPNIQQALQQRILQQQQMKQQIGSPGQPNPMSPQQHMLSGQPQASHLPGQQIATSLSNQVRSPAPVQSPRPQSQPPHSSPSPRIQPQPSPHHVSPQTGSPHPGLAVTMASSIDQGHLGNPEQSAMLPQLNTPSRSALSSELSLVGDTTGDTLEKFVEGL
Description: FIG. 3. COMPOUND 1 disrupts the β-catenin/CBP complex but not the p300/β-catenin complex. • A. Full-length Xenopus laevis β-catenin (1.1, 2.2, and 3.3 μg) or murine CBP (0.14, 0.28, 0.55, 1.1, and 2.2 μg) plasmids were cotransfected in SW480 cells along with the β-catenin/TCF (1.1 μg) reporter gene construct. Empty pcDNA3 vector was used to equalize the amount of DNA used in each reaction. Dual luciferase assays were performed 24 hours post COMPOUND 1 treatment. All experiments were performed in duplicate and values plotted as means +/−standard deviation. • B. COMPOUND 1 competes with β-catenin for CBP. SW480 cells were treated with 5 or 10 μM of COMPOUND 1 or control (0.5% DMSO). 24 hours post treatment, lysates were incubated with beads coated with either control the antibody, or anti-CBP, or anti-p300 antibodies. Co-immunoprecipitated proteins were subjected to gel electrophoresis and immunoblotting using anti-β-catenin antibodies. The arrows point to the immunoprecipitated β-catenin (doublets). • C. CBP (1-111) is the minimal region of interaction with β-catenin. SW480 cells transfected with a CBP deletion series were subjected to immunoprecipitation using anti-β-catenin antibodies coated on Protein A-agarose beads. The immune complexes were washed and subjected to gel electrophoresis followed by immunoblotting using anti-His antibodies. […]

[3] = test system: caspase-3/7 in SW480 cells; assay: Caspase-3/7 activity assay, SW480 cells; type: cell-based, human; settings: 25 μM, 24 hours, compared to CCD18Co cells
Description: FIG. 6. • A. COMPOUND 1 arrests cells in G1. FACS analysis was performed on SW480 (lower panel) and HCT116 (upper panel) cells treated for 24 hours with either COMPOUND 1 (25 μM) (right) or control (0.5% DMSO (left). 5.5×10^6 cells were fixed and stained with propidium iodide (PI). G0/G1, S, and G2/M are indicated by arrows. • B. COMPOUND 1 selectively activates caspases in colon carcinoma cell lines. SW480 and HCT116 (left graph) cells (10^5) along with the normal colonocytes, CCD18Co (right graph) were treated with either control (0.5% DMSO) or COMPOUND 1 (25 μM). 24 hours post treatment, cells were lysed and the caspase-3/7 enzymatic activities were measured. Relative fluorescence units (RFU) were calculated by subtracting the unit values of the blank (control, without cells) from the treated samples (COMPOUND 1 or control) and plotted.
SW480, HCT116, and CCD18Co cells were plated at 10^5 cells per well (96-well plates) for 24 hours prior to treatment. 25 μM of COMPOUND 1 or control (0.5% DMSO) was added to each well. 24 hours post treatment, cells were lysed and caspase activity was measured using a caspase-3/7 activity kit (Apo-One Homogeneous caspase-3/7 assay, #G77905, Promega). Relative fluorescence units (RFU) were obtained by subtracting the unit values of the blank (control, without cells) from the experimental measured values. […]

[4] = test system: SW480 cells; assay: Soft agar colony formation assay with SW480 cells; type: cell-based, human

T1 sequence (P45481 1-110): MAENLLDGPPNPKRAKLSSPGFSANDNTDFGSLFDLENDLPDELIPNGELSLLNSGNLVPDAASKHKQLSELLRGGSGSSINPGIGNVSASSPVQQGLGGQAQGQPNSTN

O=C1C(Cc2ccc(O)cc2)N2C(=O)CCN(C(=O)NCc3ccccc3)C2CN1Cc1cccc2ccccc12 (stereo not drawn) [COMPOUND 1]
Competition of CBP fragment binding to COMPOUND 2 beads by excess COMPOUND 1 [1]: strongly competed away | CBP fragments binding to immunoprecipitated β-catenin in presence of excess COMPOUND 1 ([2]; CBP (1-111), (1-211), (1-351), 50 μM COMPOUND 1): dramatically competed away | Immunoprecipitation of β-catenin with CBP ([2]; SW480 cells, 5 or 10 μM, 24 hours, concentration dependent): inhibited | Caspase-3/7 activity [3]: specifically and significantly activated | Number of colonies formed in soft agar ([4]; 0.25-5 μM): dose dependent decrease | IC50 ([4]; 5000 cells/well, colonies counted after 8 days): 870 ± 110 nM
